Tested on: APP/PS1 mice
Test: Thioflavin S staining / immunofluorescence analysis of amyloid plaques in brain
Type: in vivo
Settings: IP once every 2.5 days for 45 days
Method: Adiponectin receptor-activating novel peptide (5AA1) was IP administered to 10 week old APP/PS1 mice once every 2.5 days for 45 days, and then, to prepare a slide section, the brains of the mice were fixed by transcardial perfusion of ice-cold 4% paraformaldehyde. The brains were fixed in 4% paraformaldehyde for 72 hours, and then, transferred to 20% sucrose and maintained at a temperature of 4° C. for 72 hours. The brains were placed in an optimal cutting temperature (OCT) compound (A.O., USA), frozen in liquid nitrogen, and sectioned into coronal plane (14 μm) in CM 3050C cryostat (Leica, Germany). Pictures of tissue sections were taken on ProbeOn Plus charged slides (Fisher, USA).
Immunofluorescence analysis was performed by using minor modifications of the method described in the existing study (Shah et al., 2014; Shah et al., 2015). Slides containing tissue sections were washed twice with a 0.01 M PBS solution for 15 minutes. Proteinase K was added to the tissue sections, which were then cultured at a temperature of 37° C. for 5 minutes. The tissue sections were then reacted in a blocking solution (5% normal goat serum, 0.3% Triton X-100, PBS) for 1 hour. The slides were reacted overnight with the primary antibody (the same antibody used in the ‘Western blot analysis’) and then reacted with secondary TRITC- or FITC-conjugated antibodies (diluted 1:50 in PBS; Santa Cruz) at room temperature for 90 minutes. The slides were dipped in Prolong Antifade reagent (Molecular Probe, Eugene, Oreg., USA) and stained. All stained slides were analyzed with a confocal laser scanning microscope (Flouview FV 1000). Amyloid plaques were visualized in brain slices after Thioflavin S staining. The brain slices were washed twice with 0.01 M PBS for 10 minutes, and then immersed in fresh 1% Thioflavin S solution at room temperature for 10 minutes. The brain slices were then immersed in 70% ethanol for 5 minutes, then washed twice with water, counterstained with propidium iodide (PI) and covered with cover glass.
Morphological analysis and signals were analyzed with Image J software (open source software provided by the US NIH), and the analysis results were expressed as IOD (Integral Optical Density). The ratio of the amyloid deposit site in the proposed area was also quantified by using Image-J software.

## RGPCG (adiponectin receptor-activating peptide) [5AA1]
  amyloid β plaque in the cortex and hippocampus of the brain: remarkably reduced

Reference: US10618937B2, “Method of treating Alzheimer's disease” (INDUSTRY-ACADEMIC COOPERATION FOUNDATION GYEONGSANG …, priority 2016, dated 2020)
